Data: ChEMBL document CHEMBL1126507, “The synthesis of novel 8a-aza-8a-homoerythromycin derivatives via the beckmann rearrangement of (9z)-erythromycin a oxime” (1993)
Values after ≈ are worked out from the molar mass of the structure shown.

How the values were obtained:
Type in all cases: functional
Staphylococcus aureus [1] = test: Minimum inhibitory concentration required for antibacterial activity against Staphylococcus aureus MB 2865 strain
Enterococcus faecalis [2] = test: Minimum inhibitory concentration required for antibacterial activity against Enterococcus faecalis MB 5407 strain
Streptococcus pyogenes = test: Minimum inhibitory concentration required for antibacterial activity against Streptococcus pyogenes MB 2874 strain
Haemophilus influenzae [3] = test: Minimum inhibitory concentration required for antibacterial activity against Haemophilus influenzae MB 5363 strain
Klebsiella pneumoniae [4] = test: Minimum inhibitory concentration required for antibacterial activity against Klebsiella pneumoniae MB 4005 strain
Streptococcus pneumoniae = test: Minimum inhibitory concentration required for antibacterial activity against Streptococcus pneumoniae CL 2883 strain
[5] = tested on: Staphylococcus epidermidis; test: Minimum inhibitory concentration required for antibacterial activity against Staphylococcus epidermidis MB 5414 strain
Escherichia coli [6] = test: Minimum inhibitory concentration required for antibacterial activity against Escherichia coli MB 2884 strain
Haemophilus influenzae [7] = test: Minimum inhibitory concentration required for antibacterial activity against Haemophilus influenzae MB 5363 strain;value ranges from 2-4
Haemophilus influenzae [8] = test: Minimum inhibitory concentration required for antibacterial activity against Haemophilus influenzae CL 1830 strain;value ranges from 64-128
Enterococcus faecalis [9] = test: Minimum inhibitory concentration required for antibacterial activity against Enterococcus faecalis MB 5407 strain;value ranges from 1-2
Escherichia coli [10] = test: Minimum inhibitory concentration required for antibacterial activity against Escherichia coli MB 2884 strain;value ranges from 16-64
Klebsiella pneumoniae [11] = test: Minimum inhibitory concentration required for antibacterial activity against Klebsiella pneumoniae MB 4005 strain;value ranges from 32-64
Staphylococcus aureus [12] = test: microbe, parasite or virus in culture
Enterobacter cloacae [13] = test: Minimum inhibitory concentration required for antibacterial activity against Enterobacter cloacae CL 4298 strain;value ranges from 32-64
Staphylococcus aureus [14] = test: Minimum inhibitory concentration required for antibacterial activity against Staphylococcus aureus MB 2865 strain;value ranges from 0.5-1
Enterobacter cloacae [15] = test: Minimum inhibitory concentration required for antibacterial activity against Enterobacter cloacae CL 4298 strain
Haemophilus influenzae [16] = test: Minimum inhibitory concentration required for antibacterial activity against Haemophilus influenzae CL 1830 strain
[17] = tested on: Staphylococcus epidermidis; test: Minimum inhibitory concentration required for antibacterial activity against Staphylococcus epidermidis MB 5414 strain;value ranges from 16-128
Staphylococcus aureus [18] = test: Minimum inhibitory concentration required for antibacterial activity against Staphylococcus aureus MB 2865 strain;value ranges from 32-64
[19] = tested on: Staphylococcus epidermidis; test: Minimum inhibitory concentration required for antibacterial activity against Staphylococcus epidermidis MB 5414 strain;value ranges from 0.25-0.5
Enterococcus faecalis [20] = test: Minimum inhibitory concentration required for antibacterial activity against Enterococcus faecalis MB 5407 strain;value ranges from 4-8
Haemophilus influenzae [21] = test: Minimum inhibitory concentration required for antibacterial activity against Haemophilus influenzae CL 1830 strain;value ranges from 8-16
Haemophilus influenzae [22] = test: Minimum inhibitory concentration required for antibacterial activity against Haemophilus influenzae MB 5363 strain;value ranges from 0.5-2
Klebsiella pneumoniae [23] = test: Minimum inhibitory concentration required for antibacterial activity against Klebsiella pneumoniae MB 4005 strain;value ranges from 1-2
Escherichia coli [24] = test: Minimum inhibitory concentration required for antibacterial activity against Escherichia coli MB 2884 strain;value ranges from 1-2
Staphylococcus aureus [25] = test: Minimum inhibitory concentration required for antibacterial activity against Staphylococcus aureus MB 2865 strain;value ranges from 0.25-1
Haemophilus influenzae [26] = test: Minimum inhibitory concentration required for antibacterial activity against Haemophilus influenzae CL 1830 strain;value ranges from 4-16

Row | SMILES | MIC (Enterococcus faecalis [2]) [µg/mL] | MIC (Streptococcus pyogenes) [µg/mL] | MIC (Haemophilus influenzae [3]) [µg/mL] | MIC (Klebsiella pneumoniae [4]) [µg/mL] | MIC (Streptococcus pneumoniae) [µg/mL] | MIC [5] [µg/mL] | MIC (Escherichia coli [6]) [µg/mL] | MIC (Enterobacter cloacae [15]) [µg/mL] | MIC (Haemophilus influenzae [16]) [µg/mL] | further results
1 | CC[C@H]1OC(=O)[C@H](C)[C@@H](O[C@H]2C[C@@](C)(OC)[C@@H](O)[C@H](C)O2)[C@H](C)[C@@H](O[C@@H]2O[C@H](C)C[C@H](N(C)C)[C@H]2O)[C@](C)(O)C[C@@H](C)NC(=O)[C@H](C)[C@@H](O)[C@]1(C)O | 8 (≈ 10.7 µM) | ≤ 0.06 | 32 (≈ 42.7 µM) | 32 (≈ 42.7 µM) | ≤ 0.06 | 0.5 (≈ 0.668 µM) | 16 (≈ 21.4 µM) | – | – | MIC (Staphylococcus aureus [1]): 0.5 µg/mL (≈ 0.668 µM)
2 | CC[C@H]1OC(=O)[C@H](C)[C@@H](O[C@H]2C[C@@](C)(OC)[C@@H](O)[C@H](C)O2)[C@H](C)[C@@H](O[C@@H]2O[C@H](C)C[C@H](N(C)C)[C@H]2O)[C@](C)(O)C[C@@H](C)C(=O)[C@H](C)[C@@H](O)[C@]1(C)O [ERYTHROMYCIN] | – | ≤ 0.06 | – | – | ≤ 0.06 | 0.125 (≈ 0.17 µM) | – | – | – | MIC (Haemophilus influenzae [7]): 2 µg/mL (≈ 2.73 µM); MIC (Haemophilus influenzae [8]): 64 µg/mL (≈ 87.2 µM); MIC (Enterococcus faecalis [9]): 1 µg/mL (≈ 1.36 µM); MIC (Escherichia coli [10]): 16 µg/mL (≈ 21.8 µM); MIC (Klebsiella pneumoniae [11]): 32 µg/mL (≈ 43.6 µM); MIC (Staphylococcus aureus [12]): 0.125 µg/mL (≈ 0.17 µM); MIC (Enterobacter cloacae [13]): 32 µg/mL (≈ 43.6 µM)
3 | CC[C@H]1OC(=O)[C@H](C)[C@@H](O[C@H]2C[C@@](C)(OC)[C@@H](O)[C@H](C)O2)[C@H](C)[C@@H](O[C@@H]2O[C@H](C)C[C@H](N(C)C)[C@H]2O)[C@](C)(O)C[C@@H](C)NC[C@H](C)[C@@H](O)[C@]1(C)O | 4 (≈ 5.44 µM) | ≤ 0.06 | 4 (≈ 5.44 µM) | 4 (≈ 5.44 µM) | ≤ 0.06 | 0.5 (≈ 0.68 µM) | 2 (≈ 2.72 µM) | 4 (≈ 5.44 µM) | 32 (≈ 43.5 µM) | MIC (Staphylococcus aureus [14]): 0.5 µg/mL (≈ 0.68 µM)
4 | CC[C@H]1OC(=O)[C@H](C)[C@@H](O[C@H]2C[C@@](C)(OC)[C@@H](O)[C@H](C)O2)[C@H](C)[C@@H](O[C@@H]2O[C@H](C)C[C@H](N(C)C)[C@H]2O)[C@](C)(O)C[C@@H](C)/N=C2/O[C@@]1(C)[C@H](O)[C@H]2C | > 128 | 2 (≈ 2.74 µM) | 64 (≈ 87.6 µM) | > 128 | 4 (≈ 5.47 µM) | 16 (≈ 21.9 µM) | 128 (≈ 175 µM) | 128 (≈ 175 µM) | > 128 | MIC (Staphylococcus aureus [1]): 16 µg/mL (≈ 21.9 µM)
5 | CC[C@H]1OC(=O)[C@H](C)[C@@H](O[C@H]2C[C@@](C)(OC)[C@@H](O)[C@H](C)O2)[C@H](C)[C@@H](O[C@@H]2O[C@H](C)C[C@H](N(C)C)[C@H]2O)[C@@]2(C)C[C@@H](C)N=C(O2)[C@H](C)[C@@H](O)[C@]1(C)O | 16 (≈ 21.9 µM) | 0.5 (≈ 0.684 µM) | 64 (≈ 87.6 µM) | > 128 | 2 (≈ 2.74 µM) | – | 128 (≈ 175 µM) | 128 (≈ 175 µM) | > 128 | MIC [17]: 16 µg/mL (≈ 21.9 µM); MIC (Staphylococcus aureus [18]): 32 µg/mL (≈ 43.8 µM)
6 | CC[C@H]1OC(=O)[C@H](C)[C@@H](O[C@H]2C[C@@](C)(OC)[C@@H](O)[C@H](C)O2)[C@H](C)[C@@H](O[C@@H]2O[C@H](C)C[C@H](N(C)C)[C@H]2O)[C@](C)(O)C[C@@H](C)CN(C)[C@H](C)[C@@H](O)[C@]1(C)O [AZITHROMYCIN] | – | ≤ 0.06 | – | – | ≤ 0.06 | – | – | 1 (≈ 1.34 µM) | – | MIC (Staphylococcus aureus [14]): 0.5 µg/mL (≈ 0.668 µM); MIC [19]: 0.25 µg/mL (≈ 0.334 µM); MIC (Enterococcus faecalis [20]): 4 µg/mL (≈ 5.34 µM); MIC (Haemophilus influenzae [21]): 8 µg/mL (≈ 10.7 µM); MIC (Haemophilus influenzae [22]): 0.5 µg/mL (≈ 0.668 µM); MIC (Klebsiella pneumoniae [23]): 1 µg/mL (≈ 1.34 µM); MIC (Escherichia coli [24]): 1 µg/mL (≈ 1.34 µM)
7 | CC[C@H]1OC(=O)[C@H](C)[C@@H](O[C@H]2C[C@@](C)(OC)[C@@H](O)[C@H](C)O2)[C@H](C)[C@@H](O[C@@H]2O[C@H](C)C[C@H](N(C)C)[C@H]2O)[C@](C)(O)C[C@@H](C)N(C)C[C@H](C)[C@@H](O)[C@]1(C)O [L-701677] | 2 (≈ 2.67 µM) | ≤ 0.06 | – | – | ≤ 0.06 | – | – | 1 (≈ 1.34 µM) | – | MIC (Staphylococcus aureus [25]): 0.25 µg/mL (≈ 0.334 µM); MIC (Haemophilus influenzae [26]): 4 µg/mL (≈ 5.34 µM); MIC [19]: 0.25 µg/mL (≈ 0.334 µM); MIC (Haemophilus influenzae [22]): 0.5 µg/mL (≈ 0.668 µM); MIC (Klebsiella pneumoniae [23]): 1 µg/mL (≈ 1.34 µM); MIC (Escherichia coli [24]): 1 µg/mL (≈ 1.34 µM)
